“And” between values parts separate entries of the source, which are not always exact repeats. Equal values may be shown once. Read-outs that look alike come from different tables or passages of the source.
Experiments:
H929 cells = test: Anti-proliferation assay (ATPLite, 72 h), H929; assay type: cell-based
EJM cells = test: Anti-proliferation assay (ATPLite, 72 h), EJM; assay type: cell-based
KSM-12-PE cells = test: Anti-proliferation assay (ATPLite, 72 h), KSM-12-PE; assay type: cell-based
[1] = tested on: mantle cell lymphoma cell line Mino; test: Anti-proliferation assay (ATPLite, 72 h), Mino; assay type: cell-based, human; settings: in combination with HE-NECA; Mino
Description: (§1) All of the cell lines were cultured in RPMI-1640 media supplemented with 10% FBS except OCI Ly10 cells (IMDM media supplemented with 20% human serum). The ANBL-6 cell line culture media also contained 10 ng/ml IL-6. MM.1S, MM.1R, SU-DHL6, Karpas 422, and OCI ly10 cells were provided by the Dana Farber Cancer Institute. ANBL-6 cells were provided by Bob Orlowsli (M.D. Anderson Cancer Research Center). H929, RPMI-8226, GA-10, Farage, Mino, JVM-13, Pfeiffer, Toledo, and Kusami-1 cells were from ATCC (Cat #'s CCL-155, CRL-9068, CRL-2392 CRL-2630, CRL-3000, CRL-3003, CRL-2632, CRL-2631, and CRL-2724 respectively). MOLP-8, OPM2, EJM, and KSM-12-PE cells were from DSMZ.
(§2) Compounds were prepared in DMSO at 1000× the highest desired concentration. Master plates were generated consisting of serially diluted compounds in 2- or 3-fold dilutions in 384-well format. For single agent dose response curves, the master plates consisted of 9 individual compounds at 12 concentrations in 2- or 3-fold dilutions. For combination matrices, master plates consisted of individual compounds at 6 or 9 concentrations at 2- or 3-fold dilutions.
(§3) The average untreated well value (avg. untreated wells) is the arithmetic mean of 40 wells from the same assay plate treated with vehicle alone. Negative inhibition values result from local variations in treated wells as compared to untreated wells.
(§4) The uncertainty of each fitted parameter was estimated from the range over which the change in reduced chi-squared was less than one, or less than minimum reduced chi-squared if that minimum exceeded one, to allow for underestimated σI errors.
(§5) Single agent curve data were used to define a dilution series for each compound to, be used for combination screening in a 6×6 matrix format. […] For compounds with no detectable single agent activity, a dilution factor of 4 was used, starting from the highest achievable concentration.
(§6) The Loewe additivity model was used to quantify combination effects. Combinations were ranked initially by Additivity Excess Volume, which is defined as ADD Volume=ΣCX, CY(Idata−ILoewe). where ILoewe(CX,CY) is the inhibition that satisfies (CX/ECX)+(CY/ECY)=1, and ECX,Y are the effective concentrations at ILoewe for the single agent curves. A “Synergy Score” was also used, where the Synergy Score S=log fX log fY ΣIdata (Idata−ILoewe), summed over all non-single-agent concentration pairs, and where log fX,Y is the natural logarithm of the dilution factors used for each single agent.

[2] = tested on: mantle cell lymphoma cell line JVM-13; test: Anti-proliferation assay (ATPLite, 72 h), JVM-13; assay type: cell-based, human; settings: in combination with HE-NECA; JVM-13
Description: as §1, §2, §3, §4, §5, §6

[3] = tested on: Pfeiffer (diffuse large B cell lymphoma) cells; test: Anti-proliferation assay (ATPLite, 72 h), Pfeiffer; assay type: cell-based; settings: in combination with HE-NECA
Description: as §1, §2
(§7) The average untreated well value (avg. untreated wells) is the arithmetic mean of 40 wells from the same assay plate treated with vehicle alone. […]
(§8) The Loewe additivity model was used to quantify combination effects. […]

[4] = tested on: Kasumi-1 (acute myelogenous leukemia) cells; test: Anti-proliferation assay (ATPLite, 72 h), Kasumi-1; assay type: cell-based; settings: in combination with HE-NECA
Description: as §1, §2, §7, §8

MM.1S cells [5] = test: Anti-proliferation assay (ATPLite, 72 h), MM.1S
RPMI-8226 cells = test: Anti-proliferation assay (ATPLite, 72 h), RPMI-8226; assay type: cell-based; settings: in combination with ADAC; RPMI-8226
MM.1R cells = test: Anti-proliferation assay (ATPLite, 72 h), MM.1R; assay type: cell-based; settings: in combination with ADAC; MM.1R
MOLP-8 cells = test: Anti-proliferation assay (ATPLite, 72 h), MOLP-8; assay type: cell-based; settings: in combination with CGS-21680
OPM2 cells = test: Anti-proliferation assay (ATPLite, 72 h), OPM2; assay type: cell-based, human; settings: in combination with CGS-21680; OPM-8
ANBL-6 cells = test: Anti-proliferation assay (ATPLite, 72 h), ANBL-6; assay type: cell-based; settings: in combination with CGS-21680
OCI-ly10 DLBCL cells = test: Anti-proliferation assay (ATPLite, 72 h), OCI-ly10; assay type: cell-based; settings: in combination with CGS-21680
Karpas 422 DLBCL cells = test: Anti-proliferation assay (ATPLite, 72 h), Karpas 422; assay type: cell-based; settings: in combination with CGS-21680
SU-DHL6 DLBCL cells = test: Anti-proliferation assay (ATPLite, 72 h), SU-DHL6; assay type: cell-based; settings: in combination with CGS-21680
[6] = tested on: chronic lymphocytic leukemia (CLL) cells; test: Apoptosis assay (Hoechst 33342 flow cytometry, 48 h) on patient CLL cells; assay type: cell-based, human
From the text: Patients with active infections or other serious medical conditions were not included in this study. Patients with white blood cell counts of less than 15,000/μl by automated analysis were excluded from this study. Whole blood was layered on Ficoll-Hystopaque (Sigma), and peripheral blood mononuclear cells (PBMC) isolated after centrification. […] One million cells were stained with anti-CD5-PE and anti-CD19-PE-Cy5 (Becton […].). The percentage of B-CLL cells was defined as the percentage of cells doubly expressing CD5 and CD19, as determined by flow cytometry. […] Compound master plates were diluted 1:50 into complete media to create working compound dilutions. Compound crosses were then created by diluting two working dilution plates 1:10 into each plate of cells. […] Hoechst 33342 (Molecular Probes, Eugene Oreg.) at a final concentration of 0.25 μg/mL was added to each well and the cells incubated at 37° C. for an additional ten minutes before being placed on ice until analysis. Plates were then analyzed on a LSR-II flow cytometer (Becton Dickenson, Franklin Lakes, N.J.) equipped with the High Throughput Sampling (HTS) option in high throughput mode. […] The apoptotic fraction was calculated using FlowJo software (Tree Star Inc., Ashland, Oreg.) after excluding debris by a FSC/SSC gate and subsequently gating for cells that accumulate the Hoechst dye.

MM.1S cells [7] = tested on: MM.1S cells

COC1=C2C[C@@H](C)C[C@H](OC)[C@H](O)[C@@H](C)/C=C(\C)[C@H](OC(N)=O)[C@@H](OC)/C=C\C=C(/C)C(=O)NC(=CC1=O)C2=O [geldanomycin]
synergy score (H929 cells): 1.82 | synergy score (EJM cells; in combination with HE-NECA): 1.48 | synergy score (KSM-12-PE cells; in combination with HE-NECA, KSM-12_PE): 1.37 | synergy score [1]: 1.27 | synergy score [2]: 1.84 | synergy score [3]: 2.1 | synergy score [4]: 2.47 | synergy score (MM.1S cells [5]): 2.2

C[C@@H]1C[C@H]2[C@@H]3CCC4=CC(=O)C=C[C@]4(C)[C@@]3(F)[C@@H](O)C[C@]2(C)[C@@]1(O)C(=O)CO [dexamethasone]
synergy score (RPMI-8226 cells): 4.71 | synergy score (H929 cells; in combination with ADAC, H929): 7.09 | synergy score (MM.1R cells): 0.33 | synergy score (MOLP-8 cells): 4.86 | synergy score (OPM2 cells): 2.85 | synergy score (EJM cells; in combination with CGS-21680): 5.32 | synergy score (ANBL-6 cells): 1.25 | synergy score (KSM-12-PE cells; in combination with CGS-21680, KSM-12-PE): 1.27 | synergy score (OCI-ly10 DLBCL cells): 4.21 | synergy score (Karpas 422 DLBCL cells): 4.32 | synergy score (SU-DHL6 DLBCL cells): 4.85 | Induction of CLL cell apoptosis ([6]; Patient #1, Dexamethasone 1 nM alone): 9.3% | Induction of CLL cell apoptosis ([6]; Patient #1, Dexamethasone 10 nM alone): 33% | Induction of CLL cell apoptosis ([6]; Patient #1, Dexamethasone 100 nM alone): 56% | Induction of CLL cell apoptosis ([6]; Patient #2, Dexamethasone 8.4 nM alone): 8.4% | Induction of CLL cell apoptosis ([6]; Patient #2, Dexamethasone 11 nM alone): 11% | Induction of CLL cell apoptosis ([6]; Patient #2, Dexamethasone 36 nM alone): 36% | Induction of CLL cell apoptosis ([6]; Patient #2, Dexamethasone 50 nM alone): 50% | apoptosis, CLL cells patient 1 ([6]; patient 1, 48 hours): 33% | apoptosis, CLL cells patient #2 ([6]; patient #2, 48 hours): 27% | inhibition (MM.1S cells [7]): 47% and 36% and 60% and 48% | percent inhibition of cell proliferation (MM.1S cells [5]; DEX 0.0462 nM, Cl-IB-MECA 0 nM, MM.1S, 72 h): 12% | percent inhibition of cell proliferation (MM.1S cells [5]; DEX 0.139 nM alone, listed as DEX): 1.8% and 10% | percent inhibition of cell proliferation (MM.1S cells [5]; DEX 0.139 nM, Cl-IB-MECA 0 nM, MM.1S, 72 h): 0.78% | percent inhibition of cell proliferation (MM.1S cells [5]; DEX 0.416 nM alone): 8.3% | percent inhibition of cell proliferation (MM.1S cells [5]; DEX 1.85 nM alone, listed as DEX): 14% and 27% | percent inhibition of cell proliferation (MM.1S cells [5]; DEX 1.85 nM, CCPA 0 μM, MM.1S, 72 h): 13% | percent inhibition of cell proliferation (MM.1S cells [5]; DEX 3.74 nM alone): 32% | percent inhibition of cell proliferation (MM.1S cells [5]; DEX 3.74 nM, Cl-IB-MECA 0 nM, MM.1S, 72 h): 22% | percent inhibition of cell proliferation (MM.1S cells [5]; DEX 5.56 nM alone, listed as DEX): 20% and 30% and 33% | percent inhibition of cell proliferation (MM.1S cells [5]; DEX 5.56 nM, CCPA 0 μM, MM.1S, 72 h): 36% | percent inhibition of cell proliferation (MM.1S cells [5]; DEX 11.2 nM alone, listed as DEX): 28% and 54% | percent inhibition of cell proliferation (MM.1S cells [5]; DEX 11.2 nM, Cl-IB-MECA 0 nM, MM.1S, 72 h): 29% | percent inhibition of cell proliferation (MM.1S cells [5]; DEX 33.7 nM alone, listed as DEX): 48% and 64% | percent inhibition of cell proliferation (MM.1S cells [5]; DEX 33.7 nM, Cl-IB-MECA 0 nM, MM.1S, 72 h): 56% | percent inhibition of cell proliferation (MM.1S cells [5]; DEX 0.0378 μM alone): 61% | percent inhibition of cell proliferation (MM.1S cells [5]; DEX 50 nM alone, listed as DEX): 55% and 79% and 70% | percent inhibition of cell proliferation (MM.1S cells [5]; DEX 50 nM, CCPA 0 μM, MM.1S, 72 h): 72% | percent inhibition of cell proliferation (MM.1S cells [5]; DEX 101 nM alone, listed as DEX): 64% and 68% | percent inhibition of cell proliferation (MM.1S cells [5]; DEX 101 nM, Cl-IB-MECA 0 nM, MM.1S, 72 h): 67% | percent inhibition of cell proliferation (MM.1S cells [5]; DEX 0.113 μM alone): 76% | percent inhibition of cell proliferation (MM.1S cells [5]; DEX 150 nM alone, listed as DEX): 73% and 87% and 80% | percent inhibition of cell proliferation (MM.1S cells [5]; DEX 150 nM, CCPA 0 μM, MM.1S, 72 h): 76% | percent inhibition of cell proliferation (MM.1S cells [5]; DEX 303 nM alone): 70% | percent inhibition of cell proliferation (MM.1S cells [5]; DEX 0.34 μM alone): 78% | percent inhibition of cell proliferation (MM.1S cells [5]; DEX 1.02 μM alone): 82% | percent inhibition of cell proliferation (MM.1S cells [5]; DEX 0.0462. nM alone): −2.5% | percent inhibition of cell proliferation (MM.1S cells [5]; DEX 0.4.16 nM alone): −5.2% | percent inhibition of cell proliferation (MM.1S cells [5]; DEX 0.4.16 nM, Cl-IB-MECA 0 nM, MM.1S, 72 h): 4.5% | percent inhibition of cell proliferation (MM.1S cells [5]; DEX 3.74. nM alone): 18% | percent inhibition of cell proliferation (MM.1S cells [5]; DEX […], Cl-IB-MECA 0 nM, MM.1S, 72 h): 9.7% | change in IC50 when cultured in the presence of IL-6 (MM.1S cells [5]; MM.1S, 72 hours, 10 ng/ml IL-6 vs no IL-6): 2.9 fold | synergy score (MM.1S cells [5]; in combination with ADAC, MM.1S): 1.98 | synergy score (MM.1S cells [5]; in combination with CGS-21680, MM.1S): 8.06
